Results taken from ChEMBL document CHEMBL1641599, “Design of novel N-phenylnicotinamides as selective cyclooxygenase-1 inhibitors” (Bioorg Med Chem Lett, 2011).

Each compound was assayed against T1, Prostaglandin G/H synthase 1 (Ovis aries) (UniProt P05979) (assay: Inhibition of ovine COX1 at 100 uM after 5 mins by microplate reader assay).
T1 sequence (whole entry): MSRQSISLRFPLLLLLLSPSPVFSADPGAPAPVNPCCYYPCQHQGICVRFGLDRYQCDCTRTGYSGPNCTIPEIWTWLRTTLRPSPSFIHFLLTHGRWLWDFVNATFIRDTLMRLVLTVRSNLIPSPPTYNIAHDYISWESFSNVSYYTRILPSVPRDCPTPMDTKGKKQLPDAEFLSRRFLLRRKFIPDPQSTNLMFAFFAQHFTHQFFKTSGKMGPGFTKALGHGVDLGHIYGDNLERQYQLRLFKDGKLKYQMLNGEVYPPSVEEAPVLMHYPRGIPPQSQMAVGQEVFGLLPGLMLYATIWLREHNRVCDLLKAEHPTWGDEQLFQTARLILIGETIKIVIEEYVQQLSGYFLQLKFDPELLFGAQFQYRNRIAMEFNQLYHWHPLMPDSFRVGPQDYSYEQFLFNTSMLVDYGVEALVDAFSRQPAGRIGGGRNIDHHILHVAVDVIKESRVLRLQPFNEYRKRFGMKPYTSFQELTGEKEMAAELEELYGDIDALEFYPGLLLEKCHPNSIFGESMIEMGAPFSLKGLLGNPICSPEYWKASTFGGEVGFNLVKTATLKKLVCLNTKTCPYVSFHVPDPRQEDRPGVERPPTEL

| inhibition [%] | SMILES |
| --- | --- |
| 63 | O=C(Nc1cc(Cl)cc(Cl)c1)c1cnc(O)c(Cl)c1 |
| 35 | O=C(Nc1cccc(Cl)c1)c1cccnc1O |
| 33 | O=C(Nc1ccc(Br)cc1)c1cnc(Cl)c(Cl)c1 |
| 72 | O=C(Nc1ccc(Cl)cc1Cl)c1cnc(O)c(Cl)c1 |
| 41 | O=C(Nc1ccc(F)cc1)c1ccc(Cl)nc1 |
| 38 | COc1ccc(NC(=O)c2ccc(Cl)nc2)cc1 |
| 45 | Cc1ccc(C(=O)Nc2ccc(Cl)cc2)cn1 |
| 42 | O=C(Nc1ccc(Cl)cc1)c1ccc(Cl)nc1 |
| 0 | COc1ccc(NC(=O)c2cncc(Br)c2)cc1 |
| 40 | O=C(Nc1ccc(Cl)cc1Cl)c1cnc(Cl)c(Cl)c1 |
| 40 | Cc1ccc(NC(=O)c2ccc(O)nc2)cc1 |
| 38 | Cc1ccc(C(=O)Nc2ccc(Cl)cc2Cl)cn1 |
| 20 | Cc1ccc(C(=O)Nc2cc(Cl)cc(Cl)c2)cn1 |
| 47 | O=C(Nc1ccc(Br)cc1)c1cccnc1O |
| 60 | O=C(Nc1ccc(Cl)cc1)c1cccnc1O |
| 35 | Cc1ccc(C(=O)Nc2ccc(Br)cc2)cn1 |
| 78 | O=C(Nc1ccc(F)cc1)c1ccc(O)nc1 |
| 58 | O=C(Nc1ccc(Br)cc1)c1cnc(O)c(Cl)c1 |
| 50 | Cc1ccc(NC(=O)c2cnc(O)c(Cl)c2)cc1 |
| 10 | Cc1ccc(NC(=O)c2ccc(C)nc2)cc1 |

| inhibition [%] | SMILES |
| --- | --- |
| 45 | O=C(Nc1ccc(F)cc1)c1cnc(Cl)c(Cl)c1 |
| 28 | Cc1ccc(NC(=O)c2cccnc2O)cc1 |
| 42 | COc1ccc(NC(=O)c2cccnc2O)cc1 |
| 42 | O=C(Nc1ccc(Cl)cc1)c1cnc(Cl)c(Cl)c1 |
| 13 | O=C(Nc1ccc(Cl)cc1)c1cncc(Br)c1 |
| 5 | O=C(Nc1ccc(Br)cc1)c1cncc(Br)c1 |
| 37 | Cc1ccc(NC(=O)c2cnc(Cl)c(Cl)c2)cc1 |
| 19 | O=C(Nc1ccc(Cl)cc1Cl)c1cncc(Br)c1 |
| 18 | O=C(Nc1ccc(Br)cc1)c1ccc(Cl)nc1 |
| 64 | COc1ccc(NC(=O)c2cnc(O)c(Cl)c2)cc1 |
| 34 | O=C(Nc1cc(Cl)cc(Cl)c1)c1cnc(Cl)c(Cl)c1 |
| 75 | O=C(Nc1ccc(Cl)cc1)c1ccc(O)nc1 |
| 59 | Cc1ccc(C(=O)Nc2ccc(F)cc2)cn1 |
| 90 | O=C(Nc1ccc(F)cc1)c1cnc(O)c(Cl)c1 |
| 64 | O=C(Nc1ccc(Br)cc1)c1ccc(O)nc1 |
| 64 | O=C(Nc1ccc(F)cc1)c1cccnc1O |
| 84 | O=C(Nc1ccc(Cl)cc1)c1cnc(O)c(Cl)c1 |
| 53 | COc1ccc(NC(=O)c2ccc(O)nc2)cc1 |
| 26 | COc1ccc(NC(=O)c2ccc(C)nc2)cc1 |
| 25 | Cc1ccc(NC(=O)c2ccc(Cl)nc2)cc1 |

The compounds below were run against T2, Prostaglandin G/H synthase 1 (Ovis aries, UniProt P05979) (assay: Inhibition of ovine COX1 after 5 mins by microplate reader assay).
T2 sequence (P05979 whole entry): T1 sequence (whole entry)

| IC50 [µM] | SMILES |
| --- | --- |
| 29 | O=C(Nc1cc(Cl)cc(Cl)c1)c1cnc(O)c(Cl)c1 |
| 2.7 | O=C(Nc1ccc(Cl)cc1)c1c[nH]c(=O)c(Cl)c1 |
| 30 | O=C(Nc1ccc(Br)cc1)c1ccc(=O)[nH]c1 |
| 16 | O=C(Nc1ccc(Cl)cc1Cl)c1cnc(O)c(Cl)c1 |
| 0.68 | O=C(Nc1ccc(F)cc1)c1c[nH]c(=O)c(Cl)c1 |
| 28 | O=C(Nc1ccc(Cl)cc1)c1cccnc1O |
| 3.5 | O=C(Nc1ccc(F)cc1)c1ccc(O)nc1 |
| 74 | O=C(Nc1ccc(Br)cc1)c1cnc(O)c(Cl)c1 |
| 86 | COc1ccc(NC(=O)c2ccc(=O)[nH]c2)cc1 |
| 44 | COc1ccc(NC(=O)c2c[nH]c(=O)c(Cl)c2)cc1 |
| 32 | O=C(Nc1ccc(F)cc1)c1ccc[nH]c1=O |
| 95 | Cc1ccc(NC(=O)c2c[nH]c(=O)c(Cl)c2)cc1 |
| 9.2 | O=C(Nc1ccc(Cl)cc1)c1ccc(O)nc1 |
| 70 | Cc1ccc(C(=O)Nc2ccc(F)cc2)cn1 |
